Measured values as given in US11946064B2, “Compositions and therapeutic methods of microRNA gene delivery” (The Brigham and Women's Hospital, Inc., priority 2018, dated 2024).

System: glioblastoma initiating cells (GICs)
Assay: survival of mice implanted intracranially with GICs and treated with TMZ
Format: in vivo, athymic nude mice
Conditions: control cells; intraperitoneal TMZ 20 mg/Kg/day for 5 days
Method: FIGS. 6A-6F illustrates the effect of clustered microRNAs on GBM cells treated with TMZ or irradiation. […] Dotted lines represent animals treated with TMZ. Different line colors represent the different overexpressed clusters.
Furthermore, in an in vivo model, mice were intracranially implanted with glioblastoma initiating cells (GICs) expressing either control vector, Cluster 3 or Cluster 5 vector and treated with intraperitoneal TMZ injections (20 mg/Kg/day for 5 days).

Cn1nnc2c(C(N)=O)ncn2c1=O [TMZ, temozolomide] gave a survival benefit of roughly 40%.
